In brackets after ≈: the same amount, converted by molar mass.

For assay [1], the system named is SGC-7901. The assay is described as follows: Antiproliferative activity against human SGC7901 cells after 48 hrs by MTT assay. It is filed as functional, cell-based. Conditions: SGC-7901, 48 h. Background: Tetrazolium assays rely on reduction of a dye to a coloured formazan, in cell work by metabolically active cells.
Assay [2] concerns the target Telomerase reverse transcriptase (Homo sapiens, UniProt O14746). The assay is described as follows: Inhibition of telomerase in human SGC7901 cells by TRAP assay. The format is cell-based, SGC-7901.

Telomerase reverse transcriptase, sequence (O14746 whole entry): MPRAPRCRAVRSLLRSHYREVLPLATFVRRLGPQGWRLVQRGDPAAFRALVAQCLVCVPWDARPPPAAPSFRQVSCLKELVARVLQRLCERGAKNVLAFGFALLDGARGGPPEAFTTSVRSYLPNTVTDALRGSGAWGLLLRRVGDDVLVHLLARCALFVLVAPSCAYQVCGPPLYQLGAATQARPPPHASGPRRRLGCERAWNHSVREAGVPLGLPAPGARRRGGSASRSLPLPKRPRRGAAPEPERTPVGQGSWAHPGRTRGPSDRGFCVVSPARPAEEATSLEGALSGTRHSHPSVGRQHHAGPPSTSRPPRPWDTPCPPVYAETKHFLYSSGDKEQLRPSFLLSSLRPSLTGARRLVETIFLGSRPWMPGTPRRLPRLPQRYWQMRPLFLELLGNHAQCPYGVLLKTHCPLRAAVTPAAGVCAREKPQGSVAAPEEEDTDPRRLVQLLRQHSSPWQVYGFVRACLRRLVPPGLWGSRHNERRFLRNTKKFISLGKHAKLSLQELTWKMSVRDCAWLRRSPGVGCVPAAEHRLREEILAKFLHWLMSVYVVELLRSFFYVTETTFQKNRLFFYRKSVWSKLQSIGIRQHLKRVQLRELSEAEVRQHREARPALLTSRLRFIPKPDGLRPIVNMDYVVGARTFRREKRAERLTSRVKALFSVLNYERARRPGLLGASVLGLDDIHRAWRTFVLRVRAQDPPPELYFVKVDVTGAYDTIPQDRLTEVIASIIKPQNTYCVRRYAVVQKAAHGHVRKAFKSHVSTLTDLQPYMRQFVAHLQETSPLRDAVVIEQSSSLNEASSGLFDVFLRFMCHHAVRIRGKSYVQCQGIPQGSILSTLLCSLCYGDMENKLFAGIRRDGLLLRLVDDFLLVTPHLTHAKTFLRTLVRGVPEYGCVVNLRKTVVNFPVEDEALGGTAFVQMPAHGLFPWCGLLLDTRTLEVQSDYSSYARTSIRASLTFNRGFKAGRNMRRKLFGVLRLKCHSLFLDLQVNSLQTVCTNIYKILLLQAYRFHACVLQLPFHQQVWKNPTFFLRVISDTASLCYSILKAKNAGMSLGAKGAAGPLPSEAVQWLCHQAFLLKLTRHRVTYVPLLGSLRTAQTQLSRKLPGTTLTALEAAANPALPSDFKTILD

On to `Oc1ccc(-c2nnc(SCc3ccc(Cl)nc3)o2)cc1`, for which, in assay [1], the IC50 was greater than 20 µg/mL. Still for that read-out and setting: then `COc1ccc(-c2nnc(SCc3ccc(Cl)nc3)o2)cc1`, with 3.5 µg/mL (≈ 10.5 µM); and `Clc1ccc(-c2nnc(SCc3ccc(Cl)nc3)o2)cc1`, with 8.62 µg/mL (≈ 25.5 µM); and `COc1ccccc1-c1nnc(SCc2ccc(Cl)nc2)o1`, with 8.2 µg/mL (≈ 24.6 µM). As for `COc1ccc(-c2nnc(SCc3ccc(Cl)nc3)o2)c(O)c1`, the IC50 in assay [2] is 2.3 µM; in assay [1], 1.61 µg/mL (≈ 4.6 µM).

The compound `CCOc1ccc(-c2nnc(SCc3ccc(Cl)nc3)o2)cc1` gave an IC50 in assay [1] of 4.97 µg/mL (≈ 14.3 µM). Still for that read-out and setting: to `CC(C)c1ccc(-c2nnc(SCc3ccc(Cl)nc3)o2)cc1` belongs 4.32 µg/mL (≈ 12.5 µM); to `COc1ccc(-c2nnc(SCc3ccc(Cl)nc3)o2)cc1OC`, 4.48 µg/mL (≈ 12.3 µM). The compound `Fc1ccccc1-c1nnc(SCc2ccc(Cl)nc2)o1` gave an IC50 in assay [1] of 9.12 µg/mL (≈ 28.3 µM).

Turning to `Cc1ccccc1-c1nnc(SCc2ccc(Cl)nc2)o1`, in assay [1], the IC50 was found to be 8.51 µg/mL (≈ 26.8 µM).

Regarding `Cc1ccc(-c2nnc(SCc3ccc(Cl)nc3)o2)cc1`, the IC50 in assay [1] came to 3.62 µg/mL (≈ 11.4 µM). Regarding `Clc1ccc(CSc2nnc(-c3cccc4ccccc34)o2)cn1`, the IC50 in assay [2] was 4.2 µM; in assay [1], 2.56 µg/mL (≈ 7.24 µM). Take `Fc1ccc(-c2nnc(SCc3ccc(Cl)nc3)o2)cc1`: half-maximal inhibition in assay [1] (IC50) was put at 3.67 µg/mL (≈ 11.4 µM). The same measure, in the same setting: to `Clc1ccc(CSc2nnc(-c3ccccn3)o2)cn1` belongs 12.6 µg/mL (≈ 41.3 µM). Same read-out and setting: then `CN(C)c1ccc(-c2nnc(SCc3ccc(Cl)nc3)o2)cc1`, with 8.9 µg/mL (≈ 25.7 µM); and `Clc1ccc(CSc2nnc(-c3ccco3)o2)cn1`, with 14.3 µg/mL (≈ 48.7 µM). `O=c1[nH]cc(F)c(=O)[nH]1` [FLUOROURACIL] yielded an IC50 in assay [1] of 7.36 µg/mL (≈ 56.6 µM). On the same count and under the same terms, then `Nc1ccc(-c2nnc(SCc3ccc(Cl)nc3)o2)cc1`, with 8.48 µg/mL (≈ 26.6 µM). Same read-out and setting: to `Clc1ccc(CSc2nnc(-c3cccs3)o2)cn1` belongs 15.1 µg/mL (≈ 48.7 µM); to `Clc1ccc(CSc2nnc(-c3ccccc3Cl)o2)cn1`, 13.4 µg/mL (≈ 39.8 µM). On the same count and under the same terms, to `CCOc1ccccc1-c1nnc(SCc2ccc(Cl)nc2)o1` belongs 10.3 µg/mL (≈ 29.6 µM). In the case of `COc1cc(-c2nnc(SCc3ccc(Cl)nc3)o2)cc(OC)c1OC`, the IC50 in assay [1] stood at 10.2 µg/mL (≈ 25.9 µM).

One may read the IC50 as the concentration that inhibits the measured activity by half. Low readings indicate higher potency, high ones lower potency.

Source of the values: ChEMBL document CHEMBL1275371, “Synthesis, biological evaluation, and molecular docking studies of 2-chloropyridine derivatives possessing 1,3,4-oxadiazole moiety as potential antitumor agents” (Bioorg Med Chem, 2010).
